This note sets out measurements from patent publication US8574831B2, “Mutational profiles in HIV-1 reverse transcriptase correlated with phenotypic drug resistance” (Virco N.V., priority 2000, dated 2013).

Marks after values point to notes of the source that are not given here. A value given as a limit tells only on which side of the number the result lay.

Common to all, as to format: cell-based
For test [1], the system named is HIV-1 HXB2 mutants with site-directed mutations in RT. Description: Recombinant virus assay, drug susceptibility of mutants with site-directed RT mutations (Example 1). The note with it: for Fold resistance: standard error in parentheses. Here is the method: Plasma samples were obtained from HIV-1-infected individuals from routine clinical practice in Europe and the US and were shipped to the laboratory on dry ice and stored at −70° C. until analysis. Phenotypic analysis was performed using the recombinant virus assay. See Kellam, P., and B. A. Larder. Antimicrob. Agents Chemother. 38:23-30 (1994); Hertogs, K., et al., Antimicrob. Agents Chemother. 42:269-276 (1998); Briefly, protease (PR) and reverse transcriptase (RT) coding sequences were amplified from patient-derived viral RNA with HIV-1 specific primers. After homologous recombination of amplicons into a PR-RT deleted proviral clone, the resulting recombinant viruses were harvested, titrated and used for in vitro susceptibility testing to antiretroviral drugs.
For the modeling studies, mutations were generated in the RT gene of HXB2, a wild-type laboratory HIV-1 strain, using the QuikChange^J Site-Directed Mutagenesis Kit, […]^7, Stratagene Cloning systems, La Jolla, Calif., USA.

The subject of test [2] is patient-derived recombinant HIV-1 variants (protease/RT from patient plasma). Description: Recombinant virus assay (ANTIVIROGRAM), MT-4 cell viral cytopathic effect (CPE) protection assay, patient-derived recombinant viruses (Example 2). The conditions noted are these: for level of resistance: samples with AZT and 3TC resistance mutations plus T69A/N or V175M. Here is the method:
FIG. 1: Nucleoside analogue susceptibility of MDIR patient-derived recombinant HIV variants. Recombinant viruses were produced from patient plasma samples as described in Example 2 and tested for susceptibility to (a) d4T, (b) ddC and (c) ddl. […] Error bars indicate standard errors. Note that the total number (n=310) is higher than the 302 MDR samples described because a small minority were 69D/N and 75M double mutants and are represented in both groups.
Viral RNA was extracted from 200 μL patient plasma using the QIAAMPV® Viral RNA Extraction Kit (Qiagen, Hilden, Germany), according to the manufacturers instructions. cDNA encompassing part of the pol gene was produced using EXPAND™ reverse transcriptase (Boehringer Mannheim) as described previously. See Hertogs K., et al., Antimicrob. Agents Chemother. 42:269-276 (1998). A 2.2 kb fragment encoding the protease and RT regions was then amplified by nested polymerase chain reaction (PCR) using PCR primers and conditions as described. Id. This genetic material was subsequently used in both phenotyping and genotyping experiments.
MT-4 cells (Harada S., et al, Science 229:563-566(1985).) were co-transfected with pol gene PCR fragments and the protease-RT deleted HIV-1 molecular clone, pGEM3deltaPRT, as described. See Hertogs K., et al., Antimicrob. Agents Chemother. 42:269-276 (1998). […] Phenotypic susceptibility to nucleoside analogues was determined using an MT-4 cell viral cytopathic effect (CPE) protection assay as described. Id. Fold resistance values were derived by dividing the mean IC50 for a patient's recombinant virus by the mean IC50 for wild-type control virus (strain HXB2-D). The PCR products obtained from patient plasma samples were genotyped by dideoxynucleotide-based sequence analysis. Samples were sequenced using the BIGDYE™ terminator kit (Applied Biosystems, Inc. (ABI)) and resolved on an ABI 377 DNA sequencer.
From this analysis, 302 samples were identified with four-fold or greater increases in IC50 (relative to a wild-type control virus) to at least four of these inhibitors. […]
Background: Cytopathic effects are the visible damage that an infection or toxin causes in cultured cells.

The subject of test [3] is HIV-1 HXB2-D variants with site-directed RT mutations. Put plainly: MT-4 cell CPE protection assay, HIV-1 variants constructed by site-directed mutagenesis (Example 2). The conditions noted are these: for susceptibility: 69S-[S-S] insert plus AZT resistance mutations (210W and 215Y); for resistance: T69A or V75M in a background of AZT mutations. How it is done: Mutations in the RT coding region were created by site-directed mutagenesis of a wild-type HXB2-D EcoRl-Pstl restriction enzyme fragment, encompassing the HIV-1 pol gene and cloned into pGEM3 (Promega). Single and multiple nucleotide changes were introduced into RT using the EXSITE™ mutagenesis kit (Strategene). All mutant clones were verified by DNA sequence analysis of the entire RT. PCR fragments were prepared from the mutated clones and the altered RT coding regions were transferred into the HIV-1 HXB2-D genetic background by homologous recombination as described above. The susceptibility of these recombinant viruses to nucleoside analogues was subsequently determined by the MT-4 cell CPE protection assay. Id.

On to `Nc1ccn([C@@H]2CS[C@H](CO)O2)c(=O)n1` [3TC, lamivudine], for which the Fold resistance in test [1] (SDM05: 41L, 210W, 211K, 214F, 215Y) is on record as 4 (0.3)^c fold; in test [1] (SDM18: 41L, 67N, 210W, 211K, 214F, 215Y) it was 2 (0.6) fold; in test [1] (SDM19: 41L, 67N, 69D, 210W, 211K, 214F, 215Y), 4 (0.7) fold; in test [1] (SDM22: 184V, 41L, 210W, 211K, 214F, 215Y), 78 (16.3) fold; in test [1] (SDM23: 184V) it was 82 (13.6) fold; in test [1] (SDM24: 184V, 69S-S-S, 210W, 211K, 214D, 215Y) it was 85 (14.2) fold. The Fold resistance in test [1] (SDM26: 184V, 41L, 67N, 210W, 211K, 214F, 215Y) is 72 (13.8) fold; in test [1] (SDM28: 44D) it was 1 (0.1) fold; in test [1] (SDM29: 1181), 2 (0.2) fold; in test [1] (SDM30: 44D, 1181) it was 3 (0.3) fold; in test [1] (SDM31: 44D, 41L, 67N, 210W, 211K, 214F, 215Y) it was 22 (2.5) fold; in test [1] (SDM32: 44D, 41L, 67N, 69D, 210W, 211K, 214F, 215Y), 8 (2.2) fold. The Fold resistance in test [1] (SDM33: 1181, 41L, 67N, 210W, 211K, 214F, 215Y) is 7 (1.0) fold; in test [1] (SDM34: 1181, 41L, 67N, 69D, 210W, 211K, 214F, 215Y) it was 32 (3.9) fold; in test [1] (SDM35: 44D, 1181, 41L, 67N, 210W, 211K, 214F, 215Y), 14 (1.4) fold; in test [1] (SDM36: 44D, 1181, 41L, 67N, 69D, 210W, 211K, 214D, 215Y) it was 15 (2.1) fold; in test [1] (SDM38: 184V, 44D, 1181, 41L, 67N, 210W, 211K, 214F, 215Y), 82 (13.5) fold; in test [1] (SDM39: 184V, 44D, 1181, 41L, 67N, 69D, 210W, 211K, 214F, 215Y), 84 (13.9) fold. Besides, the high resistance in test [1] (caused by mutation 184V) is reported as over 62 fold. Further, the “mean fold increase in IC50” value in test [2] (all four MDR groups (151 cluster, 69D/N, 75M, codon 69 insertions)) is given as over 30 fold.
Consider `Cc1cn([C@H]2C=C[C@@H](CO)O2)c(=O)[nH]c1=O` [d4T, stavudine], for which, in test [3], the “susceptibility” value was “decreased susceptibility” and the “resistance” value is listed as “little or no resistance”. Also, the “level of resistance” value in test [2] is recorded as “only modest levels of resistance”.
For `Nc1ccn([C@H]2CC[C@@H](CO)O2)c(=O)n1` [ddC, zalcitabine] the same measures were “decreased susceptibility”, “little or no resistance” and “only modest levels of resistance”.
